Source: publication PMC10388305, “Synthesis and Evaluation of a Monomethyl Auristatin E—Integrin αvβ6 Binding Peptide–Drug Conjugate for Tumor Targeted Drug Delivery” (Journal of Medicinal Chemistry, 2023)

Legend:
DX3puroβ6 (+) cells = experiment: Cell binding assay, DX3puroβ6; format: cell-based; settings: 1 h, 37 °C, γ-counter, n = 3
Source text: (§1) Binding to cells with minimal to no expression of integrin αvβ6 was low at 4.4 ± 0.1% to DX3puro cells and 7.9 ± 0.4% to pancreatic MIA PaCa-2 cells. Binding of [^64Cu]PDC-1 to DX3puroβ6 (+) and BxPC-3 (+) was reduced by adding increasing amounts of DOTA-PDC-1, illustrating that the αvβ6-selective uptake could be blocked (Figure S3). Internalization of [^64Cu]-PDC-1 into cells was high with >50% of the bound radioactivity internalized for all cells expressing the integrin αvβ6. In comparison, cell binding of [^64Cu]2 to DX3puroβ6 (+) cells was 58.8 ± 2.3, and 3.3 ± 0.4% to the DX3puro (−) cells.
(§2) Cell binding and internalization assay. Binding and internalization were determined as previously described. […] The fraction of bound radioactivity was determined with a γ-counter (by measuring cell pellet and combined supernatants). To determine the fraction of internalized radioactivity, the cells were re-pelleted, and re-suspended in acidic wash buffer (0.2 M sodium acetate, 0.5 M sodium chloride, pH = 2.5, 300 μL, 4 °C, 5 min) to release surface bound activity, followed by a wash with PBS (300 μL). The internalized fraction was determined with a γ-counter (cell pellet vs. radioactivity released into supernatant). A Wizard 1470 or Wizard 2 2470 automatic γ-counter (Perkin-Elmer, Waltham, MA) was used to measure radioactivity samples. […]

[1] = Serum stability in human serum; format: in vitro ADME; settings: 37 °C, ethanol precipitation, radio RP-HPLC
Procedure: The serum stability of [^64Cu]PDC-1 was measured in both human and mouse serum at 37 °C at 1, 4, and 24 h.
Mouse serum or human serum (0.5 mL) was combined with an aliquot of [^64Cu]PDC-1 (≤25 μL, 3.9–4.7 MBq) and incubated at 37 °C. At each time point (1, 4, and 24 h), an aliquot (50–200 μL) was taken, proteins precipitated with absolute ethanol and removed by centrifugation at 1500g for 4 min. The ethanol solution was diluted with water (1 mL) and analyzed by RP-HPLC.

DX3puro (−) cells = experiment: Cell binding assay, DX3puro; format: cell-based; settings: 1 h, 37 °C, γ-counter, n = 3
Source text: as §1, §2

MIA PaCa-2 (−) cells = experiment: Cell binding assay, MIA PaCa-2; format: cell-based; settings: 1 h, 37 °C, γ-counter, n = 3
Source text: as §1, §2

CC[C@H](C)[C@@H]([C@@H](CC(=O)N1CCC[C@H]1[C@H](OC)[C@@H](C)C(=O)N[C@H](C)[C@@H](O)c1ccccc1)OC)N(C)C(=O)[C@@H](NC(=O)[C@H](C(C)C)N(C)C(=O)OCc1ccc(NC(=O)[C@H](CCCNC(N)=O)NC(=O)[C@@H](NC(=O)CCOCCOCCNC(=O)CCN2C(=O)CC(SC[C@H](NC(=O)CN3CCN(CC(=O)O)CCN(CC(=O)O)CCN(CC(=O)O)CC3)C(=O)NCCOCCOCCOCCOCCOCCOCCOCCOCCOCCOCCOCCOCCOCCOCCOCCOCCOCCOCCOCCOCCOCCOCCOCCOCCOCCOCCOCCOCCC(=O)N[C@@H](CC(N)=O)C(=O)N[C@@H](C)C(=O)N[C@H](C(=O)N3CCC[C@H]3C(=O)N[C@@H](CC(N)=O)C(=O)N[C@@H](CC(C)C)C(=O)N[C@@H](CCCNC(=N)N)C(=O)NCC(=O)N[C@@H](CC(=O)O)C(=O)N[C@@H](CC(C)C)C(=O)N[C@@H](CCC(N)=O)C(=O)N[C@H](C(=O)N[C@@H](CC(C)C)C(=O)N[C@@H](C)C(=O)N[C@@H](CCC(N)=O)C(=O)N[C@@H](CCCNC(=N)N)C(=O)N[C@H](C(=O)N[C@@H](C)C(=O)N[C@@H](CCCNC(=N)N)C(=O)N[C@H](C(=O)NCCOCCOCCOCCOCCOCCOCCOCCOCCOCCOCCOCCOCCOCCOCCOCCOCCOCCOCCOCCOCCOCCOCCOCCOCCOCCOCCOCCOCCC(N)=O)[C@@H](C)O)C(C)C)C(C)C)C(C)C)C2=O)C(C)C)cc1)C(C)C (stereo partly drawn) [[^64Cu]PDC-1, metal not drawn]
Cell binding (DX3puroβ6 (+) cells): 67.0 ± 2.3% | remaining at 1 h ([1]; 1 h): > 98% | remaining at 4 h ([1]; 4 h): > 98% | remaining at 24 h ([1]; 24 h): 89% | Cell binding (DX3puro (−) cells): 4.4 ± 0.1% | Cell binding (MIA PaCa-2 (−) cells): 7.9 ± 0.4%
